From publication PMC10967972, “Different Coactivator Recruitment to Human PPARα/δ/γ Ligand-Binding Domains by Eight PPAR Agonists to Treat Nonalcoholic Fatty Liver Disease” (Biomedicines, 2024)
Read-outs that look alike come from different tables or passages of the source.

How the values were obtained:
Format in all cases: biochemical
[1] = biological target: T1, human PPARα-LBD (Homo sapiens, UniProt Q07869); test: TR-FRET coactivator recruitment assay, PPARα-LBD; parameters: extent of recruitment of all four coactivators to PPARα-LBD: reference not given here; conditions: for Approximate potency order in the recruitment of four coactivators, PPARα: evaluated based on EC50 values, PGC, PGC1α, SRC, SRC1, TRAP, TRAP220; for EC50: Buffer A
T1 construct: Human PPARα-LBD [amino acids (AAs) 200–468]; made in house
T1 sequence (Q07869 200-468): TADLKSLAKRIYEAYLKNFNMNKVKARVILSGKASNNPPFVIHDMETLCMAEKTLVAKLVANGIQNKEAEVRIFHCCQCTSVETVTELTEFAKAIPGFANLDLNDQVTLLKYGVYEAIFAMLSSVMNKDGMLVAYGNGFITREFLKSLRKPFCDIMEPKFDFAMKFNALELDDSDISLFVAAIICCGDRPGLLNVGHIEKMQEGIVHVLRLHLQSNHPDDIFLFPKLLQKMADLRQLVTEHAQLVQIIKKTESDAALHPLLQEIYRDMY

[2] = biological target: T2, human PPARδ-LBD (Homo sapiens, UniProt Q03181); test: TR-FRET coactivator recruitment assay, PPARδ-LBD
T2 construct: PPARδ-LBD (AAs 170–441); made in house
T2 sequence (Q03181 170-441): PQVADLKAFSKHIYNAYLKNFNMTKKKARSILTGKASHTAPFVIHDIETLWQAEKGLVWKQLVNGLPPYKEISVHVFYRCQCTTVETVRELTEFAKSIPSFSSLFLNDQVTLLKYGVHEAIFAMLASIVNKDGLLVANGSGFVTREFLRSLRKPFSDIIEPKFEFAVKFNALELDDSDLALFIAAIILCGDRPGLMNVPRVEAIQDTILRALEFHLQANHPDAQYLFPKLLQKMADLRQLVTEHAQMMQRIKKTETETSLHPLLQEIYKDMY

[3] = biological target: T3, human PPARγ-LBD (Homo sapiens, UniProt P37231); test: TR-FRET coactivator recruitment assay, PPARγ-LBD
T3 construct: PPARγ-LBD (AAs 203–477 in isoform 1); made in house
T3 sequence (P37231 203-477 isoform P37231-2): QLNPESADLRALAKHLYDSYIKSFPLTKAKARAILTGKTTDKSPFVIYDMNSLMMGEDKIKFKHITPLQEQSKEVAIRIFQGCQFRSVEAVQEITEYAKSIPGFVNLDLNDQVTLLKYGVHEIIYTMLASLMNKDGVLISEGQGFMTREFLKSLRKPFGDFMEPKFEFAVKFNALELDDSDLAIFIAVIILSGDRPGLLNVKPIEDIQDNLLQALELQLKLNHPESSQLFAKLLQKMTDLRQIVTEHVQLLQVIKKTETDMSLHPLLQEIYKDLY

[4] = read-out: PPARα CBP % of GW7647 max response
[5] = read-out: PPARα PGC1α % of GW7647 max response
[6] = read-out: PPARα SRC1 % of GW7647 max response
[7] = read-out: PPARα TRAP220 % of GW7647 max response
[8] = read-out: PPARδ CBP % of GW501516 max response
[9] = read-out: PPARδ PGC1α % of GW501516 max response
[10] = read-out: PPARδ SRC1 % of GW501516 max response
[11] = read-out: PPARδ TRAP220 % of GW501516 max response
[12] = read-out: PPARγ CBP % of GW1929 max response
[13] = read-out: PPARγ PGC1α % of GW1929 max response
[14] = read-out: PPARγ SRC1 % of GW1929 max response
[15] = read-out: PPARγ TRAP220 % of GW1929 max response
[16] = CBP peptide recruitment, read-out: PPARα CBP EC50
[17] = PGC1α peptide recruitment, read-out: PPARα PGC1α EC50
[18] = SRC1 peptide recruitment, read-out: PPARα SRC1 EC50
[19] = TRAP220 peptide recruitment, read-out: PPARα TRAP220 EC50
[20] = evaluated based on EC50 values, PGC, PGC1α, SRC, SRC1, TRAP, TRAP220
[21] = CBP peptide recruitment, Buffer A, read-out: PPARγ CBP EC50
[22] = PGC1α peptide recruitment, Buffer A, read-out: PPARγ PGC1α EC50
[23] = SRC1 peptide recruitment, Buffer A, read-out: PPARγ SRC1 EC50
[24] = TRAP220 peptide recruitment, Buffer A, read-out: PPARγ TRAP220 EC50
[25] = CBP peptide recruitment, Buffer A, read-out: PPARδ CBP EC50
[26] = PGC1α peptide recruitment, Buffer A, read-out: PPARδ PGC1α EC50
[27] = SRC1 peptide recruitment, Buffer A, read-out: PPARδ SRC1 EC50
[28] = TRAP220 peptide recruitment, Buffer A, read-out: PPARδ TRAP220 EC50

Molecule | Approximate potency order in the recruitment of four coactivators, PPARα [1] | Emax [1, 4] [%] | Emax [1, 5] [%] | Emax [1, 6] [%] | Emax [1, 7] [%] | Emax [2, 8] [%] | Emax [2, 9] [%] | Emax [2, 10] [%] | Emax [2, 11] [%] | Emax [3, 12] [%] | Emax [3, 13] [%] | Emax [3, 14] [%] | Emax [3, 15] [%] | EC50 [1, 16] [µM] | EC50 [1, 17] [µM] | EC50 [1, 18] [µM] | EC50 [1, 19] [µM] | Approximate potency order in the recruitment of four coactivators, PPARδ [2, 20] | EC50 [3, 21] [µM] | Approximate potency order in the recruitment of four coactivators, PPARγ [3, 20] | also measured
CC(C)(Oc1ccc(CCNC(=O)c2ccc(Cl)cc2)cc1)C(=O)O [Bezafibrate, bezafibrate] | CBP>PGC=TRAP>SRC | 79.2 | 74.5 | 72.4 | 76.4 | 64.6 | 90.3 | 50 | 85.8 | 68.7 | 68.6 | 34 | 55.7 |  |  |  |  |  |  |  | extent of recruitment of all four coactivators to PPARα-LBD [1]: 72.4–79.2%; recruitment of coactivators to PPARα-LBD (in words) ([1]; four coactivator peptides): recruited all four coactivators; Approximate potency order in the recruitment of four coactivators, PPARδ [2]: TRAP>PGC>CBP>SRC; recruitment of coactivators to PPARδ-LBD (in words) [2]: recruited all four coactivators; EC50 ([2]; PPARδ CBP EC50): 58.5 µM; EC50 ([2]; PPARδ TRAP220 EC50): 24.5 µM; EC50 ([2]; read-out: PPARδ PGC1α EC50): 35.8 µM; EC50 ([2]; read-out: PPARδ SRC1 EC50): 101 µM; Approximate potency order in the recruitment of four coactivators, PPARγ [3]: PGC=CBP=TRAP>SRC; recruitment of coactivators to PPARγ-LBD (in words) [3]: recruited all four coactivators; EC50 ([3]; PPARγ CBP EC50): 36.3 µM; EC50 ([3]; PPARγ PGC1α EC50): 41.8 µM; EC50 ([3]; PPARγ SRC1 EC50): 108 µM; EC50 ([3]; PPARγ TRAP220 EC50): 24.5 µM
CCc1ccc(CCOc2ccc(CC3SC(=O)NC3=O)cc2)nc1 (centres unmarked) [Pioglitazone, pioglitazone] | CBP>>>PGC=SRC=TRAP | 34.9 | 13.9 | 8.37 | 3.67 | 2.47 | 4.53 | 1.19 | 1.55 |  |  |  |  |  |  |  |  | No activation |  |  | 
CCO[C@@H](Cc1ccc(OCCn2c(C)ccc2-c2ccc(SC)cc2)cc1)C(=O)O [Saroglitazar, saroglitazar] | CBP>TRAP>PGC=SRC | 80.2 | 58.3 | 54.2 | 64.2 | 6.72 | 8.94 |  | 2.5 | 85 | 50.1 | 40 | 52.4 | 0.28 | 0.761 | 0.814 | 0.674 | Faint activation | 1.87 | CBP>PGC>TRAP=SRC | EC50 [2, 25]: > 100 µM; EC50 [2, 26]: 3.91 µM; EC50 [2, 27]: > 100 µM; EC50 [2, 28]: > 100 µM; EC50 [3, 22]: 2.46 µM; EC50 [3, 23]: 5.55 µM; EC50 [3, 24]: 8.43 µM
GW1929 |  |  |  |  |  |  |  |  |  |  |  |  |  |  |  |  |  |  |  |  | PPARγ CBP maximal fold-induction of basal levels ([3]; CBP peptide, fold over no ligand): 14.7 ×; PPARγ PGC1α maximal fold-induction of basal levels ([3]; PGC1α peptide, fold over no ligand): 11.9 ×; PPARγ SRC1 maximal fold-induction of basal levels ([3]; SRC1 peptide, fold over no ligand): 12.6 ×; PPARγ TRAP220 maximal fold-induction of basal levels ([3]; TRAP220 peptide, fold over no ligand): 15.5 ×; maximal fold-induction from basal (no ligand) levels on the four coactivators, PPARγ ([3]; range over PGC1α, CBP, SRC1, TRAP220, Buffer A): 11.9–15.5 ×

Second part, led by results:

Approximate potency order in the recruitment of four coactivators, PPARα [1] | Emax [1, 4] [%] | Emax [1, 5] [%] | Emax [1, 6] [%] | Emax [1, 7] [%] | Emax [2, 8] [%] | Emax [2, 9] [%] | Emax [2, 10] [%] | Emax [2, 11] [%] | Emax [3, 12] [%] | Emax [3, 13] [%] | Emax [3, 14] [%] | Emax [3, 15] [%] | EC50 [1, 16] [µM] | EC50 [1, 17] [µM] | EC50 [1, 18] [µM] | EC50 [1, 19] [µM] | Approximate potency order in the recruitment of four coactivators, PPARδ [2, 20] | EC50 [3, 21] [µM] | Approximate potency order in the recruitment of four coactivators, PPARγ [3, 20] | Molecule | also measured
CBP>PGC=SRC=TRAP | 61.6 | 45.6 | 41.6 | 36.2 | 30.8 | 68.5 | 19.9 | 44 | 36 | 30.8 | 9.11 | 29 | 2.77 | 6.44 | 4.98 | 4.28 | PGC>TRAP>CBP>SRC | > 10 | PGC=CBP=TRAP>SRC | CSc1ccc(C(=O)/C=C/c2cc(C)c(OC(C)(C)C(=O)O)c(C)c2)cc1 [Elafibranor, elafibranor] | recruitment of coactivators to PPARδ-LBD (in words) ([2]; four coactivator peptides): effective; EC50 [3, 22]: > 10 µM; EC50 [3, 23]: > 30 µM; EC50 [3, 24]: > 10 µM
CBP>TRAP>PGC>SRC | 80.8 | 36.8 | 78.3 | 86 | 0.45 | 0.16 | 0.6 | 2.76 | 73 | 82.5 | 42 | 64.8 | 3.41 | 8.02 | 11.1 | 7.33 | No activation |  | PGC=CBP=TRAP>SRC | CC(C)(Oc1ccc(C(=O)c2ccc(Cl)cc2)cc1)C(=O)O [Fenofibric acid, fenofibric acid] | EC50 [2, 25]: > 500 µM; EC50 [2, 26]: > 500 µM; EC50 [2, 27]: > 500 µM; EC50 [2, 28]: > 500 µM
CBP>TRAP>PGC=SRC | 71.7 | 41.8 | 49.3 | 64.7 | 101 | 103 | 57.5 | 86.5 | 83.3 | 70.5 | 46.1 | 60.4 | 4.02 | 9.95 | 10.4 | 7.31 | PGC>CBP>TRAP>SRC | 2.64 | CBP>PGC>TRAP>SRC | O=C(O)CCCc1cc2cc(Cl)ccc2n1S(=O)(=O)c1ccc2ncsc2c1 [Lanifibranor, lanifibranor] | EC50 [2, 25]: 3.72 µM; EC50 [2, 26]: 2.46 µM; EC50 [2, 27]: 6.97 µM; EC50 [2, 28]: 4.41 µM; recruitment of coactivators to PPARδ-LBD (in words) ([2]; four coactivator peptides): effective; EC50 [3, 22]: 4.31 µM; EC50 [3, 23]: 7.69 µM; EC50 [3, 24]: 5.07 µM
CBP>PGC=SRC>TRAP | 96.7 | 74.5 | 101 | 102 | 74.6 | 91.1 | 58.6 | 77.3 | 80.3 | 50.8 | 27.7 | 82.5 |  |  |  |  | PGC>CBP=TRAP>SRC | 5.58 | CBP=TRAP>PGC>SRC | CC[C@@H](Oc1cccc(CN(CCCOc2ccc(OC)cc2)c2nc3ccccc3o2)c1)C(=O)O [Pemafibrate, pemafibrate] | EC50 [2, 25]: 8.64 µM; EC50 [2, 26]: 4.75 µM; EC50 [2, 27]: 14.9 µM; EC50 [2, 28]: 7.48 µM; recruitment of coactivators to PPARδ-LBD (in words) ([2]; four coactivator peptides): effective; EC50 [3, 22]: 8.02 µM; EC50 [3, 23]: 13.8 µM; EC50 [3, 24]: 5.59 µM
